Results published in patent publication US9868727B2, “Factor XIa inhibitors” (Merck Sharp & Dohme Corp., priority 2014, dated 2018).

Key:
[1] = biological target: T1, purified human Factor XIa (Homo sapiens, UniProt P03951); assay: Factor XIa Assay; format: biochemical; settings: fluorogenic substrate Z-Gly-Pro-Arg-AFC 100 μM, 40 pM enzyme, pH 7.4, read-out: F11a IC50
T1 construct: purified human Factor XIa; purchased Sekisui Diagnostics
Experimental: The effectiveness of a compound of the present invention as an inhibitor of Coagulation Factor XIa can be determined using a relevant purified serine protease, and an appropriate synthetic substrate. The rate of hydrolysis of the chromogenic or fluorogenic substrate by the relevant serine protease was measured both in the absence and presence of compounds of the present invention. Assays were conducted at room temperature or at 37° C. […] A decrease in the rate of fluorescence change in the presence of inhibitor is indicative of enzyme inhibition. Such methods are known to one skilled in the art. […]
Factor XIa determinations were made in 50 mM HEPES buffer at pH 7.4 containing 150 mM NaCl, 5 mM CaCl2, and 0.1% PEG 8000 (polyethylene glycol; JT Baker or Fisher Scientific). Determinations were made using purified human Factor XIa at a final concentration of 40 pM (Sekisui Diagnostics) and he synthetic substrate, Z-Gly-Pro-Arg-AFC, TFA salt (Sigma #C0980) at a concentration of 100 μM.
Activity assays were performed by diluting a stock solution of substrate at least tenfold to a final concentration ≦0.1 Km into a solution containing enzyme or enzyme equilibrated with inhibitor. Times required to achieve equilibration between enzyme and inhibitor were determined in control experiments. Initial velocities of product formation in the absence (VO) or presence of inhibitor (Vi) were measured. Assuming competitive inhibition, and that unity is negligible compared Km/[S], [I]/e, and [I]/e (where [S], [I], and e respectively represent the total concentrations, of substrate, inhibitor and enzyme), the equilibrium constant (Ki) for dissociation of the inhibitor from the enzyme can be obtained from the dependence of VO/Vi on [I] shown in the following equation.

[2] = biological target: T2, purified Human plasma kallikrein (Homo sapiens, UniProt P03952); assay: Kallikrein Assay; format: biochemical; settings: Plasma Kallekrein IC50; fluorogenic substrate Acetyl-K-P-R-AFC, 0.5 nM enzyme, pH 7.4; read-out: PK IC50
T2 construct: yields a heavy chain (371 amino acids) and a light chain (248 amino acids); purchased Enzyme Research Laboratories
T2 sequence (P03952 391-638 limits assumed): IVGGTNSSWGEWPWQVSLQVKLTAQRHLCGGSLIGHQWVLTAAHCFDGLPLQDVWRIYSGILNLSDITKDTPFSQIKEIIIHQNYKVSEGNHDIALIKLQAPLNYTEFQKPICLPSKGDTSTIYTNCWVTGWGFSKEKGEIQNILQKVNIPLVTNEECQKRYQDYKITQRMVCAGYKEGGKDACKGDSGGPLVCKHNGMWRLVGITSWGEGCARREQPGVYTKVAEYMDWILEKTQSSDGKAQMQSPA
T2 sequence (P03952 20-390 partner limits assumed): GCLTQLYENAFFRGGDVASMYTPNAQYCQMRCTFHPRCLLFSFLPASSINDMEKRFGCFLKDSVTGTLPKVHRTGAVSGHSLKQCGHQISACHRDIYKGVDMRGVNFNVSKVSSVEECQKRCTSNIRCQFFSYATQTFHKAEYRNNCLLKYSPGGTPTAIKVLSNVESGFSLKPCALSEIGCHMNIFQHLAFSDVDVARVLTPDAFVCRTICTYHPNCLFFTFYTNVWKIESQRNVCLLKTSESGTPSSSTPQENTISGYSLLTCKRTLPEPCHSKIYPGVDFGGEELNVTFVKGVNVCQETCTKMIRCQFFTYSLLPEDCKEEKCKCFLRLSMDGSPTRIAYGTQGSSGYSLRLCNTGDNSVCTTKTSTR
Experimental: The effectiveness of a compound of the present invention as an inhibitor of Kallikrein can be determined using a relevant purified serine protease, and an appropriate synthetic substrate. The rate of hydrolysis of the chromogenic or fluorogenic substrate by the relevant serine protease was measured both in the absence and presence of compounds of the present invention. Assays were conducted at room temperature or at 37° C. […] A decrease in the rate of fluorescence change in the presence of inhibitor is indicative of enzyme inhibition. Such methods are known to one skilled in the art. The results of this assay are expressed as the inhibitory constant, K1.
Kallikrein determinations were made in 50 mM HEPES buffer at pH 7.4 containing 150 mM NaCl, 5 mM CaCl2, and 0.1% PEG 8000 (polyethylene glycol; Fisher Scientific). Determinations were made using purified Human plasma kallikrein at a final concentration of 0.5 nM (Enzyme Research Laboratories) and the synthetic substrate, Acetyl-K—P—R-AFC (Sigma # C6608) at a concentration of […].
Times required to achieve equilibration between enzyme and inhibitor were determined in control experiments. The reactions were performed under linear progress curve conditions and fluorescence increase measured at 405 Ex/510 Em nm. […] IC50 was determined by inflection point from a four parameter logistic curve fit. Ki was calculated using the Cheng Prusoff equation, Ki=IC50/(1+([S]/Km)).

T1 sequence (P03951 388-625 limits assumed): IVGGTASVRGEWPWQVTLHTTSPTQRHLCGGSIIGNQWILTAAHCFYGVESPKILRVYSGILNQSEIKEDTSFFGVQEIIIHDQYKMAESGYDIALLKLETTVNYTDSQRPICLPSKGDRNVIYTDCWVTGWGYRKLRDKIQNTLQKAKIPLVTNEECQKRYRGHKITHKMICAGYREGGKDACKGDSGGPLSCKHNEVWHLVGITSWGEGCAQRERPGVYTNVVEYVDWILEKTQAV
T1 sequence (P03951 19-387 partner limits assumed): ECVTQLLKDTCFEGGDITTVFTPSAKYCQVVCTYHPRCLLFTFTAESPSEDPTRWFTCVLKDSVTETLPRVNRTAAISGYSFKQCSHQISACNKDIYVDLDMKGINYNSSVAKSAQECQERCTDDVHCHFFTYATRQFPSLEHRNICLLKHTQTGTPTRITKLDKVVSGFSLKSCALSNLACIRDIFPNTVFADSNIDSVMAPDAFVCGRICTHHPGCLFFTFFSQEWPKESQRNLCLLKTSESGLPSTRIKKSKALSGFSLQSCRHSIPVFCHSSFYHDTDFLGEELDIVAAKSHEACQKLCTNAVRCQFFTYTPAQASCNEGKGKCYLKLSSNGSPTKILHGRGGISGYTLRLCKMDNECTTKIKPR

IC50 [1] [nM]	IC50 [2] [nM]	SMILES
11.9		COC(=O)Nc1ccc(-c2cnc(C(CC3CC3)c3ccc(-c4cc(Cl)ccc4-n4ccnn4)c[n+]3[O-])[nH]2)cc1 (racemic) [Example 65, 5-(5-Chloro-2-(1H-1,2,3-triazol-1-yl)phenyl)-2-(2-cyclopropyl-1-(5-(4-((methoxycarbonyl)amino)phenyl)-1H-imidazol-2-yl)ethyl)pyridine 1-oxide]
12.9		COC(=O)Nc1ccc(-c2cnc(C(CC3CC3)c3ccc(-c4cc(Cl)ccc4-n4cnnc4)c[n+]3[O-])[nH]2)cc1 (racemic) [Example 66, 5-(5-chloro-2-(4H-1,2,4-triazol-4-yl)phenyl)-2-(2-cyclopropyl-1-(5-(4-((methoxycarbonyl)amino)phenyl)-1H-imidazol-2-yl)ethyl)pyridine 1-oxide]
631		COC(=O)Nc1ccc(-c2cnc(C(CC3CC3)c3ccc(-c4cc(Cl)ccc4-n4cncn4)c[n+]3[O-])[nH]2)cc1 (racemic) [Example 68]
834		COC(=O)Nc1ccc(-c2cnc(C(CC3CC3)c3ccc(-c4cc(Cl)ccc4-c4cocn4)c[n+]3[O-])[nH]2)cc1 (racemic) [Example 71]
1000		COC(=O)Nc1ccc(-c2cnc(C(CC3CC3)c3ccc(-c4cc(Cl)ccc4-n4cccn4)c[n+]3[O-])[nH]2)cc1 (racemic) [Example 73]
11		COC(=O)Nc1ccc(-c2cnc(C(CC3CC3)c3ccc(-c4cc(Cl)ccc4-n4cc(C(F)F)nn4)c[n+]3[O-])[nH]2)cc1 (racemic) [Example 74]
931		COC(=O)Nc1ccc(-c2cnc(C(CC3CC3)c3ccc(-c4cc(Cl)ccc4-n4cc(C(F)F)cn4)c[n+]3[O-])[nH]2)cc1 (racemic) [Example 75]
110		NC(=O)c1scc(-c2cnc(C(CC3CC3)c3ccc(-c4cc(Cl)ccc4-n4cnnn4)c[n+]3[O-])[nH]2)c1F (single isomer, unassigned) [Example 59, 2-(1-(5-(5-carbamoyl-4-fluorothiophen-3-yl)-1H-imidazol-2-yl)-2-cyclopropylethyl)-5-(5-chloro-2-(1H-tetrazol-1-yl)phenyl)pyridine 1-oxide]
1000		COC(=O)c1scc(-c2cnc(C(CC3CC3)c3ccc(-c4cc(Cl)ccc4-n4cnnn4)c[n+]3[O-])[nH]2)c1F (single isomer, unassigned) [Example 62, Methyl 4-[2-(1-{5-[5-chloro-2-(1H-tetrazol-1-yl)phenyl]-1-oxidopyridin-2-yl}-2-cyclopropylethyl)-1H-imidazol-5-yl]-3-fluorothiophene-2-carboxylate]
1000		COC(=O)Nc1ccc(-c2cnc(C(CC3CC3)c3ccc(-c4cc(Cl)ccc4-c4cnco4)c[n+]3[O-])[nH]2)cc1 (single isomer, unassigned) [Example 70]
54.4		COC(=O)Nc1ccc(-c2[nH]c(C(CC3CC3)c3ccc(-c4cc(Cl)ccc4-n4cnnn4)c[n+]3[O-])nc2Cl)cc1 (single isomer, unassigned) [Example 78, 5-(5-chloro-2-(1H-tetrazol-1-yl)phenyl)-2-(1-(4-chloro-5-(4-((methoxycarbonyl)amino)phenyl)-1H-imidazol-2-yl)-2-cyclopropylethyl)pyridine 1-oxide]

More lines, now with the values behind:

SMILES	IC50 [1] [nM]	IC50 [2] [nM]
COC(=O)Nc1ccc(-c2c[nH]c(C(Cc3ccc(F)cc3)c3ccc(-c4c(C#N)ccc(Cl)c4F)c[n+]3[O-])n2)cc1 (racemic) [Example 14]	59.9	
COC(=O)Nc1ccc(-c2c[nH]c(C(Cc3ccc(F)cc3)c3ccc(-c4cc(Cl)ccc4OC(F)F)c[n+]3[O-])n2)cc1 (racemic) [Example 15]	34.2	
CC(C)OC(=O)Nc1ccc(-c2cnc(C(CC3CC3)c3ccc(-c4cc(Cl)ccc4-n4cnnn4)c[n+]3[O-])[nH]2)cc1 (racemic) [Example 46]	2.91	
COC(=O)Nc1ccc(-c2c[nH]c(C(Cc3ccccc3)c3ccc(-c4c(F)ccc(Cl)c4F)c[n+]3[O-])n2)cc1 (single isomer, unassigned) [Example 6]	289	
COC(=O)Nc1ccc(-c2c[nH]c(C(Cc3ccc(F)cc3)c3ccc(-c4cc(Cl)ccc4C(F)F)c[n+]3[O-])n2)cc1 (single isomer, unassigned) [Example 12, 5-(5-chloro-2-(difluoromethyl)phenyl)-2-(2-(4-fluorophenyl)-1-(4-(4-((methoxycarbonyl)amino)phenyl)-1H-imidazol-2-yl)ethyl)pyridine 1-oxide]	341	
N#Cc1ccc(-c2c[nH]c(C(Cc3ccc(F)cc3)c3ccc(-c4cc(Cl)ccc4-n4cnnn4)c[n+]3[O-])n2)cc1 (single isomer, unassigned) [Example 19]	311	
[O-][n+]1cc(-c2cc(Cl)ccc2-n2cnnn2)ccc1C(Cc1ccc(F)cc1)c1nc(-c2ccc(Cl)cc2)c[nH]1 (single isomer, unassigned) [Example 21]	128	
COC(=O)Nc1ccc(-c2cnc(C(CC3CC3)c3ccc(-c4cc(Cl)ccc4-n4cnnn4)c[n+]3[O-])[nH]2)cc1 (single isomer, unassigned) [Example 27, 5-(5-chloro-2-(1H-tetrazol-1-yl)phenyl)-2-(2-cyclopropyl-1-(5-(4-((methoxycarbonyl)amino)phenyl)-1H-imidazol-2-yl)ethyl)pyridine 1-oxide]		207
COC(=O)Nc1ccc(-c2cnc(C(CC3CC3)c3ccc(-c4cc(Cl)ccc4-n4cnnn4)c[n+]3[O-])[nH]2)cc1 (single isomer, unassigned) [Example 28, 5-(5-chloro-2-(1H-tetrazol-1-yl)phenyl)-2-(2-cyclopropyl-1-(5-(4-((methoxycarbonyl)amino)phenyl)-1H-imidazol-2-yl)ethyl)pyridine 1-oxide]		20.8
N#Cc1ccc(-c2cnc(C(CC3CC3)c3ccc(-c4cc(Cl)ccc4-n4cnnn4)c[n+]3[O-])[nH]2)cc1 (single isomer, unassigned) [Example 30, 4-[2-(1-{5-[5-chloro-2-(1H-tetrazol-1-yl)phenyl]-1-oxidopyridin-2-yl}-2-cyclopropylethyl)-1H-imidazol-5-yl]benzonitrile]	266	
[O-][n+]1cc(-c2cc(Cl)ccc2-n2cnnn2)ccc1C(CC1CC1)c1ncc(-c2cccc(F)c2)[nH]1 (single isomer, unassigned) [Example 31]	1000	
N#Cc1cccc(-c2cnc(C(CC3CC3)c3ccc(-c4cc(Cl)ccc4-n4cnnn4)c[n+]3[O-])[nH]2)c1 (single isomer, unassigned) [Example 35]	1000	
COC(=O)Nc1ccc(-c2cnc(C(CC3CC3)c3ccc(-c4cc(Cl)ccc4-n4cnnn4)c[n+]3[O-])[nH]2)c(F)c1 (single isomer, unassigned) [Example 37]	74.8	
Nc1ccc(-c2cnc(C(CC3CC3)c3ccc(-c4cc(Cl)ccc4-n4cnnn4)c[n+]3[O-])[nH]2)c(Cl)n1 (single isomer, unassigned) [Example 48, 6-chloro-5-[2-(1-{5-[5-chloro-2-(1H-tetrazol-1-yl)phenyl]-1-oxidopyridin-2-yl}-2-cyclopropylethyl)-1H-imidazol-5-yl]pyridin-2-amine]	72	
O=C(O)c1cccc(-c2cnc(C(CC3CC3)c3ccc(-c4cc(Cl)ccc4-n4cnnn4)c[n+]3[O-])[nH]2)c1F (single isomer, unassigned) [Example 52, 3-[2-(1-{5-[5-chloro-2-(1H-tetrazol-1-yl)phenyl]-1-oxidopyridin-2-yl}-2-cyclopropylethyl)-1H-imidazol-5-yl]-2-fluorobenzoic acid]	204	
O=C(O)c1cccc(-c2c[nH]c(C(CC3CC3)c3ccc(-c4cc(Cl)ccc4-n4cnnn4)c[n+]3[O-])n2)c1 (single isomer, unassigned) [Example 54]	71	
O=C(O)c1ccc(-c2cnc(C(CC3CC3)c3ccc(-c4cc(Cl)ccc4-n4cnnn4)c[n+]3[O-])[nH]2)cc1 (single isomer, unassigned) [Example 55]	593	
COC(=O)Nc1ccc(-c2cnc([C@@H](Cc3ccccc3)c3ccc(-c4cc(Cl)ccc4-c4cnco4)c[n+]3[O-])[nH]2)cc1 [Example 26]	271	
